Measured values published in patent US20230055237A1, “COMPOUNDS AND METHODS FOR THE TREATMENT OF CYSTIC FIBROSIS” (Flatley Discovery Lab, LLC, priority 2019, published 2023).

Target: T1, CFTR (Homo sapiens, UniProt P13569, DEL508-508)
T1 construct: Primary CF airway epithelial cells were obtained from the UNC Cystic Fibrosis Tissue Procurement and Cell Culture Core; host or cells: primary CF airway epithelial cells, differentiated at the air-liquid interface
Assay: Equivalent current assay in primary CF airway epithelial cells (NAUC, combination with 1st site corrector FDL169 or VX-809)
Format: cell-based
Settings: 37° C., 24 h

[1] = test compound 3 μM in combination with 1st site corrector VX-809 (3 μM)
[2] = test compound 10 μM in combination with 1st site corrector VX-809 (3 μM)
[3] = test compound 1 μM in combination with 1st site corrector VX-809 (3 μM)
[4] = test compound 1 μM in combination with 1st site corrector FDL169 (3 μM)
[5] = test compound 3 μM in combination with 1st site corrector FDL169 (3 μM)
[6] = test compound 10 μM in combination with 1st site corrector FDL169 (3 μM)

T1 sequence (P13569 with tags, fused parts or gaps DEL508-508): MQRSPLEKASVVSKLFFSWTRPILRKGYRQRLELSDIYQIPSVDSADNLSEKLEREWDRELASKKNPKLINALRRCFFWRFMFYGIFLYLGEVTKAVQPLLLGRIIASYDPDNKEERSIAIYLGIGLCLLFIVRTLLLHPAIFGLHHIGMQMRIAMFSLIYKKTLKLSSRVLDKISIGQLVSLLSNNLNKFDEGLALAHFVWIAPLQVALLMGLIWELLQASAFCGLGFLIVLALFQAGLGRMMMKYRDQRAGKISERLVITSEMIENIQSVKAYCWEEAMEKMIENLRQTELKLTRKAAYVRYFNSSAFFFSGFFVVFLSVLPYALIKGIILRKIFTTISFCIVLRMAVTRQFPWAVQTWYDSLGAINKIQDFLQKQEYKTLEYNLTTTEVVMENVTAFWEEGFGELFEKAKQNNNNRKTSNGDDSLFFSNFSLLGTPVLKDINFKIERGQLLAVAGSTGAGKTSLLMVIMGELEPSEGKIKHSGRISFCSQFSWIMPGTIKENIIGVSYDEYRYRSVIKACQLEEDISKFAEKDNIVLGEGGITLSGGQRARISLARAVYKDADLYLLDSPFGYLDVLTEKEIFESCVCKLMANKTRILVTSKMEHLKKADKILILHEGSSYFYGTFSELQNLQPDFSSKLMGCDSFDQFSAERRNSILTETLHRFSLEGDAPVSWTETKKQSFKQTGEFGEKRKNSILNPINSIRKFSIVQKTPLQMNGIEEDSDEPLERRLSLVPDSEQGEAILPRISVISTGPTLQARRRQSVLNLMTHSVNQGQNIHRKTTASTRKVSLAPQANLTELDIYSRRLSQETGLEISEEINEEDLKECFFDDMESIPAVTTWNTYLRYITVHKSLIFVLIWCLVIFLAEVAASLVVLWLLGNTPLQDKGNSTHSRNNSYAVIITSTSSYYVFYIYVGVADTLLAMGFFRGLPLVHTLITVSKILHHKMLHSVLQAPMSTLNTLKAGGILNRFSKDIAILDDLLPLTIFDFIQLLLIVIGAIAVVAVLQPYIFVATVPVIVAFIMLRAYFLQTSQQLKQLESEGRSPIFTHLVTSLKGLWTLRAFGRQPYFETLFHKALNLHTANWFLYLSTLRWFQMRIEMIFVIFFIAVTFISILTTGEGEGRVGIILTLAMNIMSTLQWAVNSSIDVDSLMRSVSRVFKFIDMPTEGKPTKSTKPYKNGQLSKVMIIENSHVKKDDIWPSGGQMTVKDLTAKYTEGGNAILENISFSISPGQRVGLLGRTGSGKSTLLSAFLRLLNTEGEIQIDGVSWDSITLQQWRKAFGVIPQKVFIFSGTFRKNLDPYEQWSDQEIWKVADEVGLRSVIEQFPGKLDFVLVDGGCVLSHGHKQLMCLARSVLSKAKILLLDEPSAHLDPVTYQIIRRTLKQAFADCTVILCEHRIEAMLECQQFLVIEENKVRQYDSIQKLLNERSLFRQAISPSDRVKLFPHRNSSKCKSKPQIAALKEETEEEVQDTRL

| Structure (SMILES) | Nauc @ 3 μM [1] | Nauc @ 10 μM [2] | further results |
| --- | --- | --- | --- |
| O=C(Nc1cncc(C(F)(F)F)n1)C1C2CCCN2C2(C(=O)Nc3c(Cl)cc(Cl)cc32)C1C(=O)O (stereo not drawn) [Example 29] | ++ (NAUC “++” refers to an observed NAUC 170-140% of positive control) | +++ (NAUC “+++” refers to an observed NAUC>170% of positive control) |  |
| O=C(Nc1cc(Cl)cc(Cl)c1)C1C(Cc2ccccc2)NC2(C(=O)Nc3c(Cl)cc(Cl)cc32)C1C(=O)O (stereo not drawn) [Example 34] | +++ (NAUC “+++” refers to an observed NAUC>170% of positive control) | ++ (NAUC “++” refers to an observed NAUC 170-140% of positive control) |  |
| Cc1nc2ccc(NC(=O)[C@H]3[C@H]4CC(F)(F)CN4[C@]4(C(=O)Nc5c(Cl)cc(Cl)cc54)[C@H]3C(=O)O)cc2s1 [Example 118] | + (NAUC “+” refers to an observed NAUC <140% of positive control) | + (NAUC “+” refers to an observed NAUC <140% of positive control) | Nauc @ 1 μM [3]: + (NAUC “+” refers to an observed NAUC <140% of positive control) |
| COc1ccc2c(c1)C1(C(=O)N2)[C@@H](C(=O)O)[C@@H](C(=O)N(C)c2cc(Cl)cc(Cl)c2)[C@H]2CC(F)(F)CN21 (stereo partly drawn) [Example 103] |  |  | Nauc @ 1 μM [4]: + (NAUC “+” refers to an observed NAUC <140% of positive control); Nauc @ 3 μM [5]: + (NAUC “+” refers to an observed NAUC <140% of positive control); Nauc @ 10 μM [6]: + (NAUC “+” refers to an observed NAUC <140% of positive control) |
| C[C@]1(O)CC2C(C(=O)Nc3cc(Cl)c(OC(F)F)c(Cl)c3)C(C(=O)O)C3(C(=O)Nc4c(Cl)cc(Cl)cc43)N2C1 (stereo partly drawn) [Example 4] | +++ (NAUC “+++” refers to an observed NAUC>170% of positive control) | +++ (NAUC “+++” refers to an observed NAUC>170% of positive control) |  |
| CC(C)(C)CN(C(=O)[C@H]1[C@@H](C(=O)O)C2(C(=O)Nc3c(Cl)cc(Cl)cc32)N2CCC[C@@H]12)c1cc(Cl)cc(Cl)c1 (single isomer, unassigned) [Example 82.6a, (1′R,2′S,7a′R)-5,7-dichloro-1-((3,5-dichlorophenyl)(neopentyl)carbamoyl)-2-oxo-1′,2′,5′,6′,7′,7a′-hexahydrospiro[indoline-3,3′-pyrrolizine]-2′-carboxylic acid] |  |  | Nauc @ 1 μM [4]: +++ (NAUC “+++” refers to an observed NAUC>170% of positive control); Nauc @ 3 μM [5]: ++ (NAUC “++” refers to an observed NAUC 170-140% of positive control) |
| O=C(Nc1cc(Cl)cc(Cl)c1)C1C2CC3(CC3)CN2C2(C(=O)Nc3c(Cl)cc(Cl)cc32)C1C(=O)O (stereo not drawn) [Example 16] | +++ (NAUC “+++” refers to an observed NAUC>170% of positive control) | +++ (NAUC “+++” refers to an observed NAUC>170% of positive control) |  |
| Cc1oc(=O)oc1COC(=O)[C@H]1[C@@H](C(=O)N(C)c2cc(Cl)cc(Cl)c2)[C@H]2CC(F)(F)CN2C12C(=O)Nc1c(Cl)cc(Cl)cc12 (mixture of isomers) [Example 250.3a, rac-(5-methyl-2-oxo-1,3-dioxo1-4-yl)methyl (1′R,2′S,3R,7a′R)-5,7-dichloro-1-((3,5-dichlorophenyl)(methyl)carbamoyl)-6′,6′-difluoro-2-oxo-1′,2′,5′,6′,7′,7a′-hexahydrospiro[indoline-3,3′-pyrrolizine]-2′-carboxylate] |  | +++ (NAUC “+++” refers to an observed NAUC>170% of positive control) |  |
| O=C(Nc1cc(Cl)cc(Cl)c1)C1CN(S(=O)(=O)CCc2ccccc2)C2(C(=O)Nc3c(Cl)cc(Cl)cc32)C1C(=O)O (stereo not drawn) [Example 25] | + (NAUC “+” refers to an observed NAUC <140% of positive control) | ++ (NAUC “++” refers to an observed NAUC 170-140% of positive control) |  |
| O=C(Nc1cc(Cl)cc(Cl)c1)C1C(C(F)(F)c2ccccc2)NC2(C(=O)Nc3c(Cl)cc(Cl)cc32)C1C(=O)O (stereo not drawn) [Example 39] | +++ (NAUC “+++” refers to an observed NAUC>170% of positive control) | +++ (NAUC “+++” refers to an observed NAUC>170% of positive control) |  |
| O=C(Nc1cccc(O)c1)C1C2CC(F)(F)CN2C2(C(=O)Nc3c(Cl)cc(Cl)cc32)C1C(=O)O (stereo not drawn) [Example 76.a] |  | + (NAUC “+” refers to an observed NAUC <140% of positive control) |  |
| O=C(Nc1cc(Cl)cc(Cl)c1)C1C2C[C@@](O)(C(F)(F)F)CN2C2(C(=O)Nc3c(Cl)cc(Cl)cc32)C1C(=O)O (stereo partly drawn) [Example 56] | +++ (NAUC “+++” refers to an observed NAUC>170% of positive control) | +++ (NAUC “+++” refers to an observed NAUC>170% of positive control) |  |
| CC(C)(C)C(C)(C)CN(C(=O)[C@H]1[C@H]2CC(F)(F)CN2[C@]2(C(=O)Nc3c(Cl)cc(Cl)cc32)[C@H]1C(=O)O)c1cc(Cl)cc(Cl)c1 [Example 185] |  |  | Nauc @ 1 μM [4]: +++ (NAUC “+++” refers to an observed NAUC>170% of positive control); Nauc @ 3 μM [5]: +++ (NAUC “+++” refers to an observed NAUC>170% of positive control); Nauc @ 10 μM [6]: + (NAUC “+” refers to an observed NAUC <140% of positive control) |
| CN(C(=O)[C@H]1[C@H]2CC(F)(F)CN2[C@]2(C(=O)N(COC(=O)C(C)(C)C)c3c(Cl)cc(Cl)cc32)[C@H]1C(=O)OCOC(=O)C(C)(C)C)c1cc(Cl)cc(Cl)c1 (racemic) [Example 251c, rac-(pivaloyloxy)methyl (1′R,2′S,3R,7a′R)-5,7-dichloro-1-((3,5-dichlorophenyl)(methyl)carbamoyl)-6′,6′-difluoro-2-oxo-1-((pivaloyloxy)methyl)-1′,2′,5′,6′,7′,7a′-hexahydrospiro[indoline-3,3′-pyrrolizine]-2′-carboxylate] |  | + (NAUC “+” refers to an observed NAUC <140% of positive control) |  |
| CN(C(=O)N1C(=O)C2(c3cc(Cl)cc(Cl)c31)C(C(=O)OCOC(=O)C(C)(C)C)CC1CC(F)(F)CN12)c1cc(Cl)cc(Cl)c1 (single isomer, unassigned) [Example 251b, (pivaloyloxy)methyl 5,7-dichloro-1-((3,5-dichlorophenyl)(methyl)carbamoyl)-6′,6′-difluoro-2-oxo-1′,2′,5′,6′,7′,7a′-hexahydrospiro[indoline-3,3′-pyrrolizine]-2′-carboxylate] |  | + (NAUC “+” refers to an observed NAUC <140% of positive control) |  |
| COc1cc(C(F)(F)F)cc(NC(=O)C2C3CC(F)(F)CN3C3(C(=O)Nc4c(Cl)cc(Cl)cc43)C2C(=O)O)n1 (single isomer, unassigned) [Example 80.7b.1, 5,7-dichloro-6′,6′-difluoro-1′-((6-methoxy-4-(trifluoromethyl)pyridin-2-yl)carbamoyl)-2-oxo-1′,2′,5′,6′,7′,7a′-hexahydrospiro[indoline-3,3′-pyrrolizine]-2′-carboxylic acid] |  | + (NAUC “+” refers to an observed NAUC <140% of positive control) |  |
| Cc1cccc(C(F)(F)C2NC3(C(=O)Nc4c(Cl)cc(Cl)cc43)C(C(=O)O)C2C(=O)Nc2cc(Cl)cc(Cl)c2)c1 (stereo not drawn) [Example 62] |  | +++ (NAUC “+++” refers to an observed NAUC>170% of positive control) |  |
| NC(=O)[C@H]1[C@@H](C(=O)Nc2cc(Cl)cc(Cl)c2)[C@H]2CC(F)(F)CN2[C@]12C(=O)Nc1c(Cl)cc(Cl)cc12 [Example 228, (1′R,2′S,3R,7a′R)-5,7-dichloro-N1′-(3,5-dichlorophenyl)-6′,6′-difluoro-2-oxo-1′,2′,5′,6′,7′,7a′-hexahydrospiro[indoline-3,3′-pyrrolizine]-1′,2′-dicarboxamide] | + (NAUC “+” refers to an observed NAUC <140% of positive control) | + (NAUC “+” refers to an observed NAUC <140% of positive control) | Nauc @ 1 μM [3]: + (NAUC “+” refers to an observed NAUC <140% of positive control) |
| O=C(Nc1cc(Cl)cc(Cl)c1)C1C(C(F)(F)c2cccc(C(F)(F)F)c2)NC2(C(=O)Nc3c(Cl)cc(Cl)cc32)C1C(=O)O (stereo not drawn) [Example 70.c] | + (NAUC “+” refers to an observed NAUC <140% of positive control) | +++ (NAUC “+++” refers to an observed NAUC>170% of positive control) | Nauc @ 1 μM [3]: + (NAUC “+” refers to an observed NAUC <140% of positive control) |
| CN(O)C(=O)[C@@H]1[C@@H](C(=O)N(C)c2cc(Cl)cc(Cl)c2)[C@H]2CC(F)(F)CN2[C@]12C(=O)Nc1c(Cl)cc(Cl)cc12 [Example 260b, (1′R,2′R,3R,7a′R)-5,7-dichloro-N1′-(3,5-dichlorophenyl)-6′,6′-difluoro-N2′-hydroxy-N1′,N2′-dimethyl-2-oxo-1′,2′,5′,6′,7′,7a′-hexahydrospiro[indoline-3,3′-pyrrolizine]-1′,2′-dicarboxamide] | + (NAUC “+” refers to an observed NAUC <140% of positive control) | + (NAUC “+” refers to an observed NAUC <140% of positive control) | Nauc @ 1 μM [3]: + (NAUC “+” refers to an observed NAUC <140% of positive control) |
| CN(O)C(=O)C1C(C(=O)Nc2cc(Cl)cc(Cl)c2)C2CCCN2C12C(=O)Nc1c(Cl)cc(Cl)cc12 (single isomer, unassigned) [Example 235b, 5,7-dichloro-N1′-(3,5-dichlorophenyl)-N2′-hydroxy-N2′-methyl-2-oxo-1′,2′,5′,6′,7′,7a′-hexahydrospiro[indoline-3,3′-pyrrolizine]-1′,2′-dicarboxamide] | +++ (NAUC “+++” refers to an observed NAUC>170% of positive control) | +++ (NAUC “+++” refers to an observed NAUC>170% of positive control) | Nauc @ 1 μM [3]: +++ (NAUC “+++” refers to an observed NAUC>170% of positive control) |
| Cn1cc(N(CC2CC2)C(=O)[C@H]2[C@H]3CC(F)(F)CN3[C@]3(C(=O)Nc4c(Cl)cc(Cl)cc43)[C@H]2C(=O)O)c(C#N)n1 [Example 168] |  |  | Nauc @ 1 μM [4]: + (NAUC “+” refers to an observed NAUC <140% of positive control); Nauc @ 3 μM [5]: + (NAUC “+” refers to an observed NAUC <140% of positive control) |
